Experimental data published in US9527867B2, “Antibacterial biaromatic derivatives” (Actelion Pharmaceuticals Ltd., priority 2013, dated 2016).
Values after ≈ are worked out from the molar mass of the structure shown.

Assays:
Assay in all cases: Bacterial growth minimal inhibitory concentration (broth microdilution, CLSI M7-A7)
Format in all cases: cell-based
[1] = system: Enterococcus faecium A949; settings: Enterococcus faecium, A949, cation-adjusted Mueller-Hinton Broth, multiply-resistant strain (in particular quinolone-resistant), read-out: MIC for E. faecium A949
Method: (§1) Minimal Inhibitory Concentrations (MICs; mg/L) were determined in cation-adjusted Mueller-Hinton Broth by a microdilution method following the description given in “Methods for Dilution Antimicrobial Susceptibility Tests for Bacteria that Grow Aerobically”, Approved standard, 7th ed., Clinical and Laboratory Standards Institute (CLSI) Document M7-A7, Wayne, Pa., USA (2006).
(§2) All Example compounds were tested against several Gram positive and Gram negative bacteria. […] Staphylococcus aureus A798, Enterococcus faecium A949 and Acinetobacter baumannii T6474 are multiply-resistant strains (in particular quinolone-resistant), while Moraxella catarrhalis A894 is a quinolone-sensitive strain and Staphylococcus aureus ATCC29213 is a methicillin-sensitive and quinolone-sensitive strain.

[2] = system: Staphylococcus aureus A798; settings: Staphylococcus aureus, A798, cation-adjusted Mueller-Hinton Broth, multiply-resistant strain (in particular quinolone-resistant), read-out: MIC for S. aureus A798
Method: as §1, §2

[3] = system: Moraxella catarrhalis A894; settings: Moraxella catarrhalis, A894, cation-adjusted Mueller-Hinton Broth, quinolone-sensitive strain
Method: as §1, §2

[4] = system: Acinetobacter baumannii T6474; settings: Acinetobacter baumannii, T6474, cation-adjusted Mueller-Hinton Broth, multiply-resistant strain (in particular quinolone-resistant)
Method: as §1, §2

[5] = system: Staphylococcus aureus ATCC29213; settings: Staphylococcus aureus, ATCC29213, cation-adjusted Mueller-Hinton Broth, methicillin-sensitive and quinolone-sensitive strain, read-out: MIC for S. aureus ATCC29213
Method: as §1, §2

MIC [1] [µg/mL]	MIC [2] [µg/mL]	MIC [3] [µg/mL]	MIC [4] [µg/mL]	MIC [5] [µg/mL]	SMILES
2 (≈ 4.08 µM)	0.125 (≈ 0.255 µM)	≤ 0.016	0.25 (≈ 0.51 µM)	0.125 (≈ 0.255 µM)	COc1ccnc(-c2cccc(CNCC[C@@H]3CN(c4ccc5c(c4)NC(=O)CS5)C(=O)O3)c2)c1 [Example 14, 6-((R)-5-{2-[3-(4-methoxy-pyridin-2-yl)-benzylamino]-ethyl}-2-oxo-oxazolidin-3-yl)-4H-benzo[1,4]thiazin-3-one]
1 (≈ 2.11 µM)	0.063 (≈ 0.133 µM)	≤ 0.016	0.125 (≈ 0.264 µM)	0.063 (≈ 0.133 µM)	COc1cccc(-c2cccc(CNCCc3cn(-c4ccc5c(n4)NC(=O)CO5)c(=O)o3)c2)n1 [Example 35, 6-(5-{2-[3-(6-methoxy-pyridin-2-yl)-benzylamino]-ethyl}-2-oxo-oxazol-3-yl)-4H-pyrido[3,2-b][1,4]oxazin-3-one]
8 (≈ 16.3 µM)	0.125 (≈ 0.255 µM)	≤ 0.063	0.5 (≈ 1.02 µM)	0.25 (≈ 0.511 µM)	CCOc1cncc(-c2cccc(CNCC[C@H]3CN(c4ccc5c(n4)NC(=O)CO5)C(=O)O3)c2)c1 [Example 84, 6-((S)-5-{2-[3-(5-ethoxy-pyridin-3-yl)-benzylamino]-ethyl}-2-oxo-oxazolidin-3-yl)-4H-pyrido[3,2-b][1,4]oxazin-3-one]
> 8	1 (≈ 1.83 µM)	0.125 (≈ 0.229 µM)	8 (≈ 14.6 µM)	1 (≈ 1.83 µM)	CCOC(=O)COc1cccc(-c2cccc(CNCC[C@H]3CN(c4ccc5c(n4)NC(=O)CO5)C(=O)O3)c2)c1 [Example 68, [3′-({2-[(S)-2-oxo-3-(3-oxo-3,4-dihydro-2H-pyrido[3,2-b][1,4]oxazin-6-yl)-oxazolidin-5-yl]-ethylamino}-methyl)-biphenyl-3-yloxy]-acetic acid ethyl ester]
2 (≈ 4.26 µM)	0.25 (≈ 0.532 µM)	≤ 0.016	0.125 (≈ 0.266 µM)	0.125 (≈ 0.266 µM)	N#Cc1cccc(-c2cccc(CNCC[C@@H]3CN(c4ccc5c(n4)NC(=O)CO5)C(=O)O3)c2)c1 [Example 33, 3′-({2-[(R)-2-oxo-3-(3-oxo-3,4-dihydro-2H-pyrido[3,2-b][1,4]oxazin-6-yl)-oxazolidin-5-yl]-ethylamino}-methyl)-biphenyl-3-carbonitrile]
0.5 (≈ 1.02 µM)	0.031 (≈ 0.0632 µM)	≤ 0.016	0.125 (≈ 0.255 µM)	0.063 (≈ 0.128 µM)	COc1cccc(-c2cccc(CNCC[C@@H]3CN(c4ccc5c(c4)NC(=O)CS5)C(=O)O3)c2)n1 [Example 15, 6-((R)-5-{2-[3-(6-methoxy-pyridin-2-yl)-benzylamino]-ethyl}-2-oxo-oxazolidin-3-yl)-4H-benzo[1,4]thiazin-3-one]
0.5 (≈ 0.97 µM)	≤ 0.016	≤ 0.016	0.25 (≈ 0.485 µM)	≤ 0.016	COc1cc(C#N)cc(-c2cccc(CNCC[C@@H]3CN(c4ccc5c(c4)NC(=O)CS5)C(=O)O3)c2)n1 [Example 2, 2-methoxy-6-[3-({2-[(R)-2-oxo-3-(3-oxo-3,4-dihydro-2H-benzo[1,4]thiazin-6-yl)-oxazolidin-5-yl]-ethylamino}-methyl)-phenyl]-isonicotinonitrile]
16 (≈ 34 µM)	2 (≈ 4.25 µM)	≤ 0.063	1 (≈ 2.13 µM)	1 (≈ 2.13 µM)	N#Cc1cccnc1-c1cccc(CNCC[C@H]2CN(c3ccc4c(n3)NC(=O)CO4)C(=O)O2)c1 [Example 62, 2-[3-({2-[(S)-2-oxo-3-(3-oxo-3,4-dihydro-2H-pyrido[3,2-b][1,4]oxazin-6-yl)-oxazolidin-5-yl]-ethylamino}-methyl)-phenyl]-nicotinonitrile]
2 (≈ 4.2 µM)	0.031 (≈ 0.0651 µM)	≤ 0.016	0.063 (≈ 0.132 µM)	0.031 (≈ 0.0651 µM)	COc1cncc(-c2cccc(CNCC[C@H]3CN(c4ccc5c(n4)NC(=O)CO5)C(=O)O3)c2)n1 [Example 91, 6-((S)-5-{2-[3-(6-methoxy-pyrazin-2-yl)-benzylamino]-ethyl}-2-oxo-oxazolidin-3-yl)-4H-pyrido[3,2-b][1,4]oxazin-3-one]
2 (≈ 4.2 µM)	0.063 (≈ 0.132 µM)	≤ 0.016	0.25 (≈ 0.525 µM)	0.125 (≈ 0.262 µM)	COc1cccc(-c2cc(CNCC[C@H]3CN(c4ccc5c(n4)NC(=O)CO5)C(=O)O3)ccn2)n1 [Example 87, 6-((S)-5-{2-[(6′-methoxy-[2,2]bipyridinyl-4-ylmethyl)-amino]-ethyl}-2-oxo-oxazolidin-3-yl)-4H-pyrido[3,2-b][1,4]oxazin-3-one]
8 (≈ 15.5 µM)	1 (≈ 1.94 µM)	0.125 (≈ 0.243 µM)	8 (≈ 15.5 µM)	2 (≈ 3.89 µM)	O=C1COc2ccc(N3C[C@H](CCNCc4cccc(-c5cccc(OCC6CC6)c5)c4)OC3=O)nc2N1 [Example 58, 6-((S)-5-{2-[(3′-cyclopropylmethoxy-biphenyl-3-ylmethyl)-amino]-ethyl}-2-oxo-oxazolidin-3-yl)-4H-pyrido[3,2-b][1,4]oxazin-3-one]
> 8	4 (≈ 8.48 µM)	0.063 (≈ 0.134 µM)	1 (≈ 2.12 µM)	2 (≈ 4.24 µM)	N#Cc1cc(-c2cccc(CNCC[C@H]3CN(c4ccc5c(n4)NC(=O)CO5)C(=O)O3)c2)cnn1 [Example 60, 5-[3-({2-[(S)-2-oxo-3-(3-oxo-3,4-dihydro-2H-pyrido[3,2-b][1,4]oxazin-6-yl)-oxazolidin-5-yl]-ethylamino}-methyl)-phenyl]-pyridazine-3-carbonitrile]
8 (≈ 16.8 µM)	0.5 (≈ 1.05 µM)	0.031 (≈ 0.0649 µM)	0.25 (≈ 0.524 µM)	0.25 (≈ 0.524 µM)	COc1cnnc(-c2ccnc(CNCC[C@H]3CN(c4ccc5c(n4)NC(=O)CO5)C(=O)O3)c2)c1 [Example 111, (S)-6-(5-(2-(((4-(5-methoxypyridazin-3-yl)pyridin-2-yl)methyl)amino)ethyl)-2-oxooxazolidin-3-yl)-2H-pyrido[3,2-b][1,4]oxazin-3(4H)-one]
1 (≈ 2.06 µM)	0.125 (≈ 0.257 µM)	≤ 0.016	0.125 (≈ 0.257 µM)	0.063 (≈ 0.13 µM)	N#Cc1cncc(-c2cccc(CNCC[C@@H]3CN(c4ccc5c(c4)NC(=O)CS5)C(=O)O3)c2)c1 [Example 17, 5-[3-({2-[(R)-2-oxo-3-(3-oxo-3,4-dihydro-2H-benzo[1,4]thiazin-6-yl)-oxazolidin-5-yl]-ethylamino}-methyl)-phenyl]-nicotinonitrile]
1 (≈ 2.03 µM)	0.063 (≈ 0.128 µM)	≤ 0.016	0.25 (≈ 0.509 µM)	0.063 (≈ 0.128 µM)	COc1ccnc(-c2cccc(CNCC[C@@H]3CN(c4ccc5c(c4)NC(=O)CS5)C(=O)O3)c2)n1 [Example 23, 6-((R)-5-{2-[3-(4-methoxy-pyrimidin-2-yl)-benzylamino]-ethyl}-2-oxo-oxazolidin-3-yl)-4H-benzo[1,4]thiazin-3-one]
2 (≈ 4.12 µM)	0.5 (≈ 1.03 µM)	≤ 0.016	0.5 (≈ 1.03 µM)	0.25 (≈ 0.515 µM)	N#Cc1cccc(-c2cccc(CNCCc3nn(-c4ccc5c(n4)NC(=O)CO5)c(=O)o3)c2O)n1 [Example 61, 6-[2-hydroxy-3-({2-[5-oxo-4-(3-oxo-3,4-dihydro-2H-pyrido[3,2-b][1,4]oxazin-6-yl)-4,5-dihydro-[1,3,4]oxadiazol-2-yl]-ethylamino}-methyl)-phenyl]-pyridine-2-carbonitrile]
